# Assay results taken from ChEMBL document CHEMBL1133136, “A high-throughput screening utilizing intramolecular fluorescence resonance energy transfer for the discovery of the molecules that bind HIV-1 TAR RNA specifically” (Bioorg Med Chem Lett, 2000).
# Residues, ends and D or L forms follow the SMILES beside them.
# Target: Nucleic Acid
# Assay: Dissociation constant with HIV-1 trans activation responsive element of mRNA was determined
# Format: nucleic-acid assay, Human immunodeficiency virus 1
# Settings: not given
row,SMILES,Kd
1,C[C@H](N)C(=O)N[C@@H](C)C(=O)N[C@@H](C)C(=O)N[C@@H](C)C(=O)N[C@@H](C)C(=O)N[C@@H](CCCN=C(N)N)C(=O)N[C@@H](CCCN=C(N)N)C(=O)N[C@@H](C)C(=O)N[C@@H](CCCN=C(N)N)C(=O)N[C@@H](CCCN=C(N)N)C(=O)N[C@@H](C)C(=O)N[C@@H](C)C(=O)N[C@@H](C)C(=O)N[C@@H](C)C(=O)N[C@@H](C)C(=O)N[C@@H](C)C(=O)O (H-AAAAARRARRAAAAAA-OH),No binding
2,C[C@H](N)C(=O)N[C@@H](C)C(=O)N[C@@H](C)C(=O)N[C@@H](C)C(=O)N[C@@H](C)C(=O)N[C@@H](CCCN=C(N)N)C(=O)N[C@@H](CCCN=C(N)N)C(=O)N[C@@H](C)C(=O)N[C@@H](CCCN=C(N)N)C(=O)N[C@@H](C)C(=O)N[C@@H](C)C(=O)N[C@@H](C)C(=O)N[C@@H](C)C(=O)N[C@@H](C)C(=O)N[C@@H](C)C(=O)N[C@@H](C)C(=O)O (H-AAAAARRARAAAAAAA-OH),No binding

# Same assay, conditions: read-out: Kd
row,SMILES,Kd [nM]
1,C[C@H](N)C(=O)N[C@@H](C)C(=O)N[C@@H](C)C(=O)N[C@@H](CCCN=C(N)N)C(=O)N[C@@H](CCCCN)C(=O)N[C@@H](CCCCN)C(=O)N[C@@H](CCCN=C(N)N)C(=O)N[C@@H](CCCN=C(N)N)C(=O)N[C@@H](CCC(N)=O)C(=O)N[C@@H](CCCN=C(N)N)C(=O)N[C@@H](CCCN=C(N)N)C(=O)N[C@@H](CCCN=C(N)N)C(=O)N[C@@H](C)C(=O)N[C@@H](C)C(=O)N[C@@H](C)C(=O)O (H-AAARKKRRQRRRAAA-OH),70
2,C[C@H](N)C(=O)N[C@@H](C)C(=O)N[C@@H](C)C(=O)N[C@@H](CCCN=C(N)N)C(=O)N[C@@H](CCCCN)C(=O)N[C@@H](CCCCN)C(=O)N[C@@H](CCCN=C(N)N)C(=O)N[C@@H](CCCN=C(N)N)C(=O)N[C@@H](C)C(=O)N[C@@H](CCCN=C(N)N)C(=O)N[C@@H](CCCN=C(N)N)C(=O)N[C@@H](CCCN=C(N)N)C(=O)N[C@@H](C)C(=O)N[C@@H](C)C(=O)N[C@@H](C)C(=O)O (H-AAARKKRRARRRAAA-OH),80
3,C[C@H](N)C(=O)N[C@@H](C)C(=O)N[C@@H](C)C(=O)N[C@@H](C)C(=O)N[C@@H](C)C(=O)N[C@@H](CCCN=C(N)N)C(=O)N[C@@H](CCCN=C(N)N)C(=O)N[C@@H](CCCN=C(N)N)C(=O)N[C@@H](CCCN=C(N)N)C(=O)N[C@@H](CCCN=C(N)N)C(=O)N[C@@H](C)C(=O)N[C@@H](C)C(=O)N[C@@H](C)C(=O)N[C@@H](C)C(=O)N[C@@H](C)C(=O)N[C@@H](C)C(=O)O (H-AAAAARRRRRAAAAAA-OH),66000
4,C[C@H](N)C(=O)N[C@@H](C)C(=O)N[C@@H](C)C(=O)N[C@@H](C)C(=O)N[C@@H](C)C(=O)N[C@@H](CCCN=C(N)N)C(=O)N[C@@H](CCCN=C(N)N)C(=O)N[C@@H](C)C(=O)N[C@@H](CCCN=C(N)N)C(=O)N[C@@H](CCCN=C(N)N)C(=O)N[C@@H](CCCN=C(N)N)C(=O)N[C@@H](C)C(=O)N[C@@H](C)C(=O)N[C@@H](C)C(=O)N[C@@H](C)C(=O)N[C@@H](C)C(=O)O (H-AAAAARRARRRAAAAA-OH),18000
5,C[C@H](N)C(=O)N[C@@H](C)C(=O)N[C@@H](C)C(=O)N[C@@H](CCCN=C(N)N)C(=O)N[C@@H](C)C(=O)N[C@@H](C)C(=O)N[C@@H](CCCN=C(N)N)C(=O)N[C@@H](CCCN=C(N)N)C(=O)N[C@@H](C)C(=O)N[C@@H](CCCN=C(N)N)C(=O)N[C@@H](CCCN=C(N)N)C(=O)N[C@@H](CCCN=C(N)N)C(=O)N[C@@H](C)C(=O)N[C@@H](C)C(=O)N[C@@H](C)C(=O)O (H-AAARAARRARRRAAA-OH),2900
6,C[C@H](N)C(=O)N[C@@H](C)C(=O)N[C@@H](C)C(=O)N[C@@H](C)C(=O)N[C@@H](CCCCN)C(=O)N[C@@H](CCCCN)C(=O)N[C@@H](CCCN=C(N)N)C(=O)N[C@@H](CCCN=C(N)N)C(=O)N[C@@H](C)C(=O)N[C@@H](CCCN=C(N)N)C(=O)N[C@@H](CCCN=C(N)N)C(=O)N[C@@H](CCCN=C(N)N)C(=O)N[C@@H](C)C(=O)N[C@@H](C)C(=O)N[C@@H](C)C(=O)O (H-AAAAKKRRARRRAAA-OH),170
